For one assay, the target named is MERS-CoV 3CLpro (Middle East respiratory syndrome-related coronavirus, UniProt K9N7C7). Type of assay: biochemical.
The subject of another assay is alpha-chymotrypsin. Type of assay: biochemical, human. As to conditions: read-out: IC50 Chymo-trypsin.
Another assay deals with SARS-CoV-2 3CLpro (Severe acute respiratory syndrome coronavirus 2, UniProt P0DTD1). Type of assay: biochemical.

The record followed here is paper PMC10105399 (European Journal of Medicinal Chemistry, 2023).

Some results are limits rather than exact numbers.

MERS-CoV 3CLpro, sequence (K9N7C7 3248-3553 limits assumed): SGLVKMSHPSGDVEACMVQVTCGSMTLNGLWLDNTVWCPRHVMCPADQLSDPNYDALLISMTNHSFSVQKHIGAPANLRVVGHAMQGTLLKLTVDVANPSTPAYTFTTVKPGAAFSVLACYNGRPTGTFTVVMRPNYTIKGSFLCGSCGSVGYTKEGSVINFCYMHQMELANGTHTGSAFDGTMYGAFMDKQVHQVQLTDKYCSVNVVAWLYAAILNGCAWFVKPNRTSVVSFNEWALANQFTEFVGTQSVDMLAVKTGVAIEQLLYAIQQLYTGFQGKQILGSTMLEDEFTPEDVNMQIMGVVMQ

For `CC(C)C[C@H](NC(=O)OCC(C)(C)Sc1ccccc1)C(=O)N[C@H](C=O)C[C@@H]1CCNC1=O` [1c, 2-Methyl-2-(phenylthio)propyl ((S)-4-methyl-1-oxo-1-(((S)-1-oxo-3-((S)-2-oxopyrrolidin-3-yl)propan-2-yl)amino)pentan-2-yl)carbamate], on MERS-CoV 3CLpro, the “fold higher potency than 8c against MERS-CoV 3CLpro” value was roughly 2 fold. The IC50 in the assay on alpha-chymotrypsin is greater than 50 µM. Besides, the “fold higher potency than 8c against SARS-CoV-2 3CLpro” value on SARS-CoV-2 3CLpro amounted to 4.6 fold.

On to `CC(C)C[C@H](NC(=O)OCC(C)(C)Sc1ccccc1)C(=O)N[C@@H](C[C@@H]1CCNC1=O)C(=O)C(=O)NC1CC1` [1e, 2-Methyl-2-(phenylthio)propyl ((S)-1-(((S)-4-(cyclopropylamino)-3,4-dioxo-1-((S)-2-oxopyrrolidin-3-yl)butan-2-yl)amino)-4-methyl-1-oxopentan-2-yl)carbamate], for which, in the assay on alpha-chymotrypsin, the 50% inhibitory concentration (IC50) is greater than 50 µM.

Regarding `CC(C)C[C@H](NC(=O)OCC(C)(C)Sc1ccccc1)C(=O)N[C@H](C#N)C[C@@H]1CCNC1=O` [1g, 2-Methyl-2-(phenylthio)propyl ((S)-1-(((S)-1-cyano-2-((S)-2-oxopyrrolidin-3-yl)ethyl)amino)-4-methyl-1-oxopentan-2-yl)carbamate], the half-inhibitory concentration (IC50) in the assay with alpha-chymotrypsin was greater than 50 µM.

Turning to `[2H]C([2H])(OC(=O)N[C@@H](CC(C)C)C(=O)N[C@H](C=O)C[C@@H]1CCNC1=O)C(C)(C)Sc1ccccc1` [2c, 2-Methyl-2-(phenylthio)propyl-1,1-d2 ((S)-4-methyl-1-oxo-1-(((S)-1-oxo-3-((S)-2-oxopyrrolidin-3-yl)propan-2-yl)amino)pentan-2-yl)carbamate], the IC50 in the assay on alpha-chymotrypsin is greater than 50 µM.

Regarding `CC(C)C[C@H](NC(=O)OCC(C)(C)Sc1cccc(Cl)c1)C(=O)N[C@H](C=O)C[C@@H]1CCNC1=O` [7c, 2-((3-Chlorophenyl)thio)-2-methylpropyl ((S)-4-methyl-1-oxo-1-(((S)-1-oxo-3-((S)-2-oxopyrrolidin-3-yl)propan-2-yl)amino)pentan-2-yl)carbamate], the concentration for half-maximal inhibition (IC50) with alpha-chymotrypsin was greater than 50 µM.

Turning to `CC(C)C[C@H](NC(=O)OCC(C)(C)Sc1nc2ccccc2[nH]1)C(=O)N[C@H](C=O)C[C@@H]1CCNC1=O` [9c, 2-((1H-benzo[d]imidazole-2-yl)thio)-2-methylpropyl ((S)-4-methyl-1-oxo-1-(((S)-1-oxo-3-((S)-2-oxopyrrolidin-3-yl)propan-2-yl)amino)pentan-2-yl)carbamate], the “fold reduction in potency relative to 1c against MERS-CoV 3CLpro” value on MERS-CoV 3CLpro is reported as 1.5 fold. Moreover, the “fold less active than 1c against SARS-CoV-2 3CLpro” value at SARS-CoV-2 3CLpro is listed as “more than 4 fold”.

For `CC(C)C[C@H](NC(=O)OCC(C)(C)Oc1ccccc1)C(=O)N[C@H](C=O)C[C@@H]1CCNC1=O` [10c, 2-Methyl-2-phenoxypropyl ((S)-4-methyl-1-oxo-1-(((S)-1-oxo-3-((S)-2-oxopyrrolidin-3-yl)propan-2-yl)amino)pentan-2-yl)carbamate], the “fold more potent than 1c against MERS-CoV 3CLpro” value on MERS-CoV 3CLpro was 2 fold. In addition, the “fold less active than 1c against SARS-CoV-2 3CLpro” value at SARS-CoV-2 3CLpro is listed as “more than 4 fold”.

For `[2H]C([2H])(OC(=O)N[C@@H](CC(C)C)C(=O)N[C@H](C=O)C[C@@H]1CCNC1=O)C(C)(C)Oc1ccc(Cl)cc1` [12c, 2-(4-Chlorophenoxy)-2-methylpropyl-1,1-d2 ((S)-4-methyl-1-oxo-1-(((S)-1-oxo-3-((S)-2-oxopyrrolidin-3-yl)propan-2-yl)amino)pentan-2-yl)carbamate], in the assay on alpha-chymotrypsin, the IC50 is greater than 50 µM.

Turning to `CC(C)C[C@H](NC(=O)OCC(C)(C)Oc1cccc(Cl)c1)C(=O)N[C@H](C=O)C[C@@H]1CCNC1=O` [13c, 2-(3-Chlorophenoxy)-2-methylpropyl ((S)-4-methyl-1-oxo-1-(((S)-1-oxo-3-((S)-2-oxopyrrolidin-3-yl)propan-2-yl)amino)pentan-2-yl)carbamate], the IC50 in the assay on alpha-chymotrypsin is greater than 50 µM.

`CC(C)C[C@H](NC(=O)OCC(C)(C)Oc1ccc(F)cc1)C(=O)N[C@H](C=O)C[C@@H]1CCNC1=O` [15c, 2-(4-Fluorophenoxy)-2-methylpropyl ((S)-4-methyl-1-oxo-1-(((S)-1-oxo-3-((S)-2-oxopyrrolidin-3-yl)propan-2-yl)amino)pentan-2-yl)carbamate]: the IC50 in the assay on alpha-chymotrypsin was greater than 50 µM.

The term IC50 denotes the concentration needed to halve the response being measured.
